Results taken from US11352354B2, “Substituted penta-fused hexa-heterocyclic compounds, preparation method therefor, drug combination and use thereof” (Xiamen University, priority 2017, dated 2022).
Marks after values point to notes of the source that are not given here.

Experiments:
MDA-MB-231 cells = experiment: Vacuolation of MDA-MB-231 cells caused by inhibition of compounds on PIKfyve (microscopy); format: cell-based; details: MDA-MB-231 cells
From the text: I. Determination of Vacuolation of MDA-MB-231 Cells Caused by Inhibition of Compounds on PIKfyve
When the activity of pikfyve kinase is inhibited, vacuoles will be produced in cytoplasm. By observing the number of vacuoles under a microscope, the ability of compounds to inhibit the activity of pikfyve kinase can be known.
1. Cell plating: cells in logarithmic growth phase were made into a single cell suspension, counted with a cell counter and diluted to a cell concentration of about 2×10^5/mL. Then, the cells were inoculated into a 12-well plate, and cultured in a 37° C., 5% CO2 incubator.
3. Vacuolation test: after 24 and 48 hours of culture, photos were taken under an […] to observe the degree of vacuolation.
(In the table, “+” represents the degree of vacuolation; more “+” indicates more obvious vacuolation; “−” represents no vacuolation)

JeKo-1 cells = experiment: Tumor cell growth inhibition by MTS method, JeKo-1; format: cell-based; details: 5 days of culture; for inhibition at 10 µM: read-out: cell growth inhibition rate of compounds at 10 μM
Method: III. Determination of IC50 Value of Compound for Inhibiting Tumor Cell Growth by MTS Method
1. Cell plating: cells in logarithmic growth phase were counted and inoculated in a 96-well plate (20000 cells per well).
2. Administrating agent to cell: 10 mM compound mother solution in DMSO was subjected to 3 fold-gradient dilution, to set 8 concentrations, which were then added to various wells, with three replicates for each concentration, and three blank wells (only culture medium) and three negative controls (containing 0.1% DMSO) on each plate.
3. […] The OD value at 490 nm was measured with microplate reader OD490. The cell growth inhibition rate was calculated by the following formula: Cell growth inhibition rate %=1−(ODexperimental group−ODblank group)/(ODnegative group−ODblank group)×100%
The semi-inhibitory concentration IC50 of the compound acting on cell growth was calculated using GradPad Prism 5 software according to the measured cell growth inhibition rate.
In the following table it lists the IC50 value or the inhibition rates of some compounds at 10 μM against JeKo-1 cells

[1] = Homo sapiens, JeKo-1, 120 h, 10 μM

| IC50 (JeKo-1 cells; Homo sapiens, JeKo-1, 120 h) | IC50 (JeKo-1 cells) | Structure (SMILES) | degree of vacuolation, 1 μM, 24 h (MDA-MB-231 cells) | degree of vacuolation, 1 μM, 48 h (MDA-MB-231 cells) | degree of vacuolation, 10 μM, 24 h (MDA-MB-231 cells) | degree of vacuolation, 10 μM, 48 h (MDA-MB-231 cells) | cell growth inhibition rate of compounds at 10 μM (JeKo-1 cells; 10 μM) | inhibition at 10 µM (JeKo-1 cells; [1]) |
| --- | --- | --- | --- | --- | --- | --- | --- | --- |
| 2560 nM |  | Cc1ccnc(Nc2nc(-c3cccc(NC(=O)c4cccc(C(F)(F)F)c4)c3)nc3ccsc23)c1 [VII-a-18] | + | + | + | + |  |  |
|  |  | Cc1ccc(C(=O)Nc2cccc(C(F)(F)F)c2)cc1Nc1nc(-c2cccnc2)cn2ccnc12 [VI-a-2] | + | + | + | + | 38.6%^a |  |
| 824 nM |  | Cc1ccc(Nc2nc(-c3cccc(NC(=O)c4ccc(N)nc4)c3)nc3ccsc23)cn1 [VII-a-16] | + | + | + | + |  |  |
|  |  | Cc1ccc(NC(=O)c2cccc(C(F)(F)F)c2)cc1Nc1nc(-c2cccnc2)nc2c1ncn2C [IV-b-7] | + | + | + | + |  | 19.1% |
| 1100 nM |  | Cc1ccc(NC(=O)c2cccc(C(F)(F)F)c2)cc1Nc1cc(-c2cccnc2)c2cc[nH]c2n1 [I-c-12] | +++ | +++ | +++ | +++ |  |  |
| 1520 nM |  | Cc1ccnc(Nc2nc(-c3cccc(NC(=O)c4ccc(N)nc4)c3)nc3ccsc23)c1 [VII-a-19] | − | − | − | − |  |  |
| 2000 nM |  | Cc1ccc(C(=O)Nc2cccc(C(F)(F)F)c2)cc1Nc1nc(-c2cccnc2)c2cnn(C)c2n1 [III-c-1] |  |  |  |  |  |  |
|  |  | Cc1ccc(NC(=O)c2cccc(C(F)(F)F)c2)cc1Nc1nc(-c2cccnc2)cn2c(C)cnc12 [VI-b-7] | − | − | + | + |  | 16.5% |
| 2010 nM |  | Cc1ccc(NC(=O)c2cccc(C(F)(F)F)c2)cc1Nc1cc(-c2cccnc2)nc2sccc12 [VIII-a-3] | ++ | ++ | ++ | ++ |  |  |
| 1880 nM |  | Cc1ccc(NC(=O)c2cccc(C(F)(F)F)c2)cc1Nc1nc(-c2cccnc2)nc2c1cnn2C [III-b-10] | − | + | − | + |  |  |
|  |  | Cc1ccc(NC(=O)c2cccc(C(F)(F)F)c2)cc1Nc1nc(-c2cccnc2)nc2ccn(C)c12 [V-b-1] | ++ | ++ | ++ | ++ |  | 12.3% |
|  |  | Cc1ccc(C(=O)Nc2cccc(C(F)(F)F)c2)cc1Nc1nc(-c2ccncc2)nc2[nH]ccc12 [II-a-4] | − | − | + | + |  | 18.7% |
|  |  | Cc1ccc(C(=O)Nc2cccc(F)c2)cc1Nc1nc(-c2cccnc2)cn2c(Br)cnc12 [VI-b-5] |  |  |  |  |  | 16.9% |
|  |  | Cc1ccc(C(=O)Nc2cccc(C(F)(F)F)c2)cc1Nc1nc(-c2ccncc2)nc2[nH]cnc12 [IV-a-2] | + | ++ | + | ++ |  | 19% |
| 987 nM |  | Cc1ccc(C(=O)Nc2cccc(C(F)(F)F)c2)cc1Nc1nc(-c2ccncc2)nc2cc[nH]c12 [V-a-6] | ++ | ++ | ++ | ++ |  |  |
| 7120 nM |  | Cc1ccc(C(=O)Nc2cccc(C(F)(F)F)c2)cc1Nc1nc(-c2cccnc2)nc2c1ncn2C [IV-b-2] | + | + | + | + |  |  |
| 2000 nM |  | Cc1ccc(C(=O)Nc2cccc(C(F)(F)F)c2)cc1Nc1cc(-c2ccncc2)nc2sccc12 [VIII-a-8] | − | ++ | − | ++ |  |  |

| IC50 (JeKo-1 cells; Homo sapiens, JeKo-1, 120 h) | IC50 (JeKo-1 cells) | Structure (SMILES) | degree of vacuolation, 1 μM, 24 h (MDA-MB-231 cells) | degree of vacuolation, 1 μM, 48 h (MDA-MB-231 cells) | degree of vacuolation, 10 μM, 24 h (MDA-MB-231 cells) | degree of vacuolation, 10 μM, 48 h (MDA-MB-231 cells) | cell growth inhibition rate of compounds at 10 μM (JeKo-1 cells; 10 μM) | inhibition at 10 µM (JeKo-1 cells; [1]) |
| --- | --- | --- | --- | --- | --- | --- | --- | --- |
|  |  | Cc1ccc(NC(=O)c2cccc(C(F)(F)F)c2)cc1Nc1nc(-c2cccnc2)nc2[nH]ccc12 [II-a-1] |  | + |  | + |  | 17.3% |
| 1150 nM |  | Cc1ccc(Nc2nc(-c3cccc(NC(=O)c4ccc(N)nc4)c3)nc3ccsc23)nc1 [VII-a-17] | − | − | − | − |  |  |
| 2670 nM |  | Cc1ccc(Nc2nc(-c3cccc(NC(=O)c4cccc(C(F)(F)F)c4)c3)nc3ccsc23)cn1 [VII-a-15] | + | + | + | + |  |  |
|  | 2680 nM | Cc1ccc(C(=O)Nc2cccc(C(F)(F)F)c2)cc1Nc1cc(-c2cccnc2)nc2c1ccn2C [I-b-3] | + | + | ++ | ++ |  |  |
| 3260 nM |  | O=C(Nc1cccc(Nc2cc(-c3ccncc3)nc3sccc23)c1)c1cccc(C(F)(F)F)c1 [VIII-a-2] | ++ | ++ | ++ | ++ |  |  |
| 6320 nM |  | O=C(Nc1cccc(C(F)(F)F)c1)c1cccc(Nc2cc(-c3ccncc3)nc3sccc23)c1 [VIII-a-6] | + | + | + | + |  |  |
| 2540 nM |  | Cc1ccc(C(=O)Nc2cccc(C(F)(F)F)c2)cc1Nc1cc(-c2cccnc2)nc2[nH]ccc12 [I-a-20] | +++ | +++ | ++++ | ++++ |  |  |
| 2770 nM |  | Cc1ccc(NC(=O)c2cccc(C(F)(F)F)c2)cc1Nc1cc(-c2cccnc2)nc2c1ccn2C [I-b-1] | ++ | ++ | +++ | +++ |  |  |
|  | 1330 nM | Cc1ccc(C(=O)Nc2cccc(C(F)(F)F)c2)cc1Nc1cc(-c2cccnc2)nc2c1ccn2C [I-b-4] | − | − |  |  |  |  |
|  |  | Cc1ccc(C(=O)Nc2cccc(C(F)(F)F)c2)cc1Nc1nc(-c2ccncc2)nc2ccn(C)c12 [V-b-4] | ++ | ++ | ++ | ++ |  | 17.2% |
|  |  | Cn1ncc2c(NCc3cccnc3)nc(-c3cccc(NC(=S)Nc4cccc(C(F)(F)F)c4)c3)nc21 [III-b-15] | − | − | + | + |  | 24.1% |
| 7490 nM |  | Cc1ccc(NC(=O)c2cccc(C(F)(F)F)c2)cc1Nc1nc(-c2cccnc2)cn2ccnc12 [VI-a-1] |  |  |  |  |  |  |
|  |  | Cc1ccc(NC(=O)c2cccc(C(F)(F)F)c2)cc1Nc1nc(-c2cccnc2)cn2c(Br)cnc12 [VI-b-1] |  |  |  |  |  | 17.5% |
|  |  | Cc1ccc(C(=O)Nc2cccc(C(F)(F)F)c2)cc1Nc1nc(-c2cccnc2)cn2c(Br)cnc12 [VI-b-2] |  |  |  |  |  | 14.7% |
|  |  | Cc1cccc(NC(=O)c2ccc(C)c(Nc3cc(-c4cccnc4)nc4[nH]ccc34)c2)c1 [I-a-34] | + | ++ | + | ++ |  |  |
|  |  | Cc1ccc(NC(=O)c2cccc(C(F)(F)F)c2)cc1Nc1nc(-c2ccncc2)nc2ccn(C)c12 [V-b-2] | − | − | ++ | ++ |  |  |
